In patent US20200087248A1, “Fluoroallylamine Derivative And Use Thereof” (SICHUAN KELUN-BIOTECH BIOPHARMACEUTICAL CO., LTD., priority 2017, published 2020):
Where a name gives a salt, the structure may show the parent alone.

Tests used:
[1] = Stability in liver microsomes, human; format: in vitro ADME
Experimental: (§1) Stability of Liver Microsomes
(§2) Formulation of a compound reservation solution: the test compound, diclofenac acid, testosterone and propafenone were weighted in appropriate amounts, and calibrated by adding about 1 mL of DMSO to provide a 10 mM reservation solution, then stored in a 4° C. refrigerator;
(§3) Formulation of a compound working solution: 10 μL of the reservation solution were added to 990 μL acetonitrile-water (1:1) to provide a middle solution having a concentration of 100 μM, and 120 μL of the middle solution is further diluted with 2880 μL PBS to provide a 4 μM working solution; […]
(§4) After being incubated for a certain period of time, an equivalent volume of cooled acetonitrile (4° C.) was added to terminate the reaction, and LC-MS/MS was used to determine the concentrations of the compound after being incubated in various liver microsomes for different time periods. With the incubation time as the horizontal ordinate and the natural logarithm of the percentages of the remained compound at each time point as the longitudinal coordinate, a diagram was plotted, wherein the slope was the velocity constant (Ke), and the half-life (T1/2) and clearance rate (CLliver) of the compound were calculated according to the following equation to evaluate the staiblity of the compound in the liver microsomes. […]

[2] = Stability in liver microsomes, monkey; format: in vitro ADME
Experimental: as §1, §2, §3, §4

[3] = Stability in liver microsomes, dog; format: in vitro ADME
Experimental: as §1, §2, §3, §4

[4] = Stability in liver microsomes, mouse; format: in vitro ADME
Experimental: as §1, §2, §3, §4

[5] = Caco-2 permeation experiment; format: in vitro ADME; conditions: human
Experimental: (§5) Caco-2 Permeation Experiment
(§6) Culture medium: 10%FBS+1% unnecessary amino acid+90%DMEM (high glucose)
(§7) Permeation solution (pH 7.4): HBSS (Ca^+, Mg^+)+10 mM Hepes
(§8) Compound reservation solution: an amount of the test compound was weighted and added with a certain amount of DMSO to formulate a 10 mM reservation solution.
(§9) Cells were inoculated to Transwell cells in a quantity of 6*10^4/cm^2, and at the A side (top side), were added with 200 μL of the culture medium, and at the B side (base side), were added with 1000 μL of the culture medium. After the inoculation, the solution was replaced once every 2 days, and the culture was conducted for 21 to 28 day.
(§10) After 21 to 28 days since the inoculation of Caco-2 cells, the transmembrane resistance was measured.
(§11) Permeation experiment: after the transepithelial electrical resistance was measured, the buffer solution at the two sides was removed by suction, then added thereto the solution according to the following system.
(§12) According to the experimental conditions as shown in the following Table 15, the reaction solution in each experimental group was formulated: […]
(§13) Sample treatment: after 2-hours incubation, 50 μL of the permeation solution were sucked up from each side of side A and side B, and equivalent volume of cold acetonitrile was added to terminate the reaction, and the concentrations of the compound at the A and B sides were measured by LC-MS/MS. The apparent permeation (Papp) and the Efflux Ratio were calculated according to the following equations:
(§14) Efflux Ratio=Papp(BA)/Papp (AB)
(§15) wherein, dCr/dt is the integration of the concentration of the compound at the base side realted to time, Vr is the reaction volume at the base side, A is the area of a single layer of cells, being 0.33 cm^2, and C0 is the concentration of the compound at the top side.

Caco-2 cells = test: Caco-2 permeation experiment; format: in vitro ADME; conditions: 2 μM
Experimental: as §5, §6, §7, §8, §9, §10, §11, §12, §13, §14, §15

Rat PK experiment = format: in vivo, Male rats; conditions: male; for AUC(0-inf) / Cmax / half-life: rat blood plasma
Experimental: Male rats were intravenously (iv) and intragastrically (po) administered the test compounds respectively, and LC-MS/MS was used to measure the blood plasma concentration of the compound in the bodies of the rat. The main pharmacokinetic parameters were calculated by utilizing WinNonlin 6.3 software.

T1/2 in liver microsomes [1]: long half-life | half-life ([1]; liver microsomes, read-out: T1/2 in liver microsomes): 44.6 h | T1/2 in liver microsomes ([2]; Monkey): long half-life | half-life ([2]; monkey, liver microsomes, read-out: T1/2 in liver microsomes): 20.8 h | T1/2 in liver microsomes ([3]; Dog): long half-life | half-life ([3]; dog, liver microsomes, read-out: T1/2 in liver microsomes): 118 h | T1/2 in liver microsomes ([4]; Mouse): long half-life | half-life ([4]; mouse, liver microsomes, read-out: T1/2 in liver microsomes): 13.8 h | Papp A→B at 120 min, 2 μM ([5]; Caco-2, 120 min, pH 7.4, read-out: Average apparent permeability A to B): 2.6 ×10⁻⁶ cm/s | Papp B→A at 120 min, 2 μM ([5]; Caco-2, 120 min, pH 7.4, read-out: Average apparent permeability B to A): 3.26 ×10⁻⁶ cm/s | efflux ratio at 2 h, 2 μM ([5]; Caco-2, pH 7.4, Papp(BA)/Papp(AB)): 1.26 | Average apparent permeability A to B (Caco-2 cells; 120 min, pH 7.4): high permeability | Efflux ratio (Caco-2 cells; Papp(BA)/Papp(AB)): low possibility of active efflux | bioavailability (Rat PK experiment; plasma, rat, po 3 mg/kg): 89.9% | AUC(0-inf) (Rat PK experiment; iv 3 mg/kg): 1160 ± 120 ng·h/mL | Cmax (Rat PK experiment; iv 3 mg/kg): 1040 ± 181 ng/mL | half-life (Rat PK experiment; iv 3 mg/kg): 1.43 ± 0.15 h | AUC(0-inf) (Rat PK experiment; po 3 mg/kg): 1040 ± 129 ng·h/mL | Cmax (Rat PK experiment; po 3 mg/kg): 343 ± 24 ng/mL | half-life (Rat PK experiment; po 3 mg/kg): 1.37 ± 0.01 h
SMILES: CC1(C)Cc2cc(OC/C(=C/F)CN)ccc2C(=O)N1 [HC38-E, (E)-6-((2-(aminomethyl)-3-fluoroallyl)oxy)-3,3-dimethyl-3,4-dihydroisoquinolin-1(2H)-one hydrochloride]
